Values quoted from earlier work as cited in patent publication US20170348276A1 (Acerus Pharmaceutical Corporation, priority 2016, published 2017).

Key:
[1] = percent of the activity of Δ9-THC

In the case of C=C(C)[C@@H]1CCC(C)=C[C@H]1c1c(O)cc(CCCCC)cc1O [CBD, Cannabidiol], the “Bioavailability from oil-based oral delivery” value (oil-based capsule, oral) is given as ~6%, the oral bioavailability (oral administration, extensive first pass hepatic metabolism) is given as < 5% and the “bioavailability, oral-mucosal/sublingual delivery” value (sprays/lozenges) is given as “up to 12%”.

For CCCCCc1cc(O)c2c(c1)OC(C)(C)c1ccc(C)cc1-2 [Cannabinol (CBN), Cannabinol], the “activity relative to Δ9-THC” value [1] is listed as 10%.
